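Tested at 5 concentrations; 48 h exposure; 96-well plates; endpoints linearly interpolated, else capped at highest concentration. GI50 = concentration required for 50% inhibition of growth.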 Activity calls are given as the source filed them. Cut-off read from the data, not from the text of the source: active = GI50 up to about 1.1 µM and inactive = higher.
Columns and labels:
Test in all cases: DTP human tumour cell line panel, 48 h
SR = test system: SR
SK-MEL-28 = test system: SK-MEL-28
MDA-MB-231 = test system: MDA-MB-231
SK-MEL-2 = test system: SK-MEL-2
HOP-92 = test system: HOP-92
NCI-H23 = test system: NCI-H23
T47D = test system: T47D
PC-3 = test system: PC-3
SW-620 = test system: SW-620
TK-10 = test system: TK-10
HCT-116 = test system: HCT-116
SK-OV-3 = test system: SK-OV-3
UACC-62 = test system: UACC-62
RXF 393 = test system: RXF 393
KM12 = test system: KM12
HL-60 = test system: HL-60
NCI-H460 = test system: NCI-H460
NCI-H522 = test system: NCI-H522
EKVX = test system: EKVX
HCC 2998 = test system: HCC 2998

Measured: GI50

c1ccc(CCCNc2nnnc3ccccc23)cc1
inactive: SR 92.9 µM | SK-MEL-28 > 100 µM | MDA-MB-231 > 100 µM | SK-MEL-2 > 100 µM | HOP-92 > 100 µM | NCI-H23 70.3 µM | T47D 23.2 µM | PC-3 > 100 µM | SW-620 > 100 µM | TK-10 > 100 µM | HCT-116 > 100 µM | SK-OV-3 > 100 µM | UACC-62 36 µM | RXF 393 43.4 µM | KM12 > 100 µM | HL-60 > 100 µM | NCI-H460 > 100 µM | NCI-H522 24.1 µM | EKVX 70.1 µM

O=C(O)Cn1cnc2c(O)nc(Nc3ccccc3)nc21
inactive: SR > 100 µM | SK-MEL-28 > 100 µM | MDA-MB-231 > 100 µM | SK-MEL-2 > 100 µM | HOP-92 > 100 µM | NCI-H23 > 100 µM | T47D > 100 µM | PC-3 > 100 µM | HCC 2998 > 100 µM | SW-620 > 100 µM | TK-10 > 100 µM | HCT-116 > 100 µM | SK-OV-3 > 100 µM | UACC-62 > 100 µM | KM12 > 100 µM | NCI-H460 > 100 µM | NCI-H522 > 100 µM | EKVX > 100 µM

COc1ccc(-n2cnc3c(NC(Cc4ccccc4)C(=O)O)ncnc32)cc1 (stereo not given)
inactive: SR > 100 µM | SK-MEL-28 > 100 µM | MDA-MB-231 > 100 µM | SK-MEL-2 > 100 µM | HOP-92 > 100 µM | NCI-H23 > 100 µM | T47D 92.7 µM | PC-3 > 100 µM | HCC 2998 > 100 µM | SW-620 > 100 µM | TK-10 > 100 µM | HCT-116 > 100 µM | SK-OV-3 > 100 µM | UACC-62 > 100 µM | KM12 > 100 µM | NCI-H460 > 100 µM | EKVX > 100 µM

C=C(C)COC(=O)COCC(=O)OCC(=C)C
inactive: SR > 100 µM | SK-MEL-28 > 100 µM | MDA-MB-231 > 100 µM | HOP-92 > 100 µM | NCI-H23 > 100 µM | T47D > 100 µM | PC-3 95.3 µM | HCC 2998 > 100 µM | SW-620 > 100 µM | TK-10 > 100 µM | HCT-116 > 100 µM | SK-OV-3 > 100 µM | UACC-62 > 100 µM | RXF 393 > 100 µM | KM12 > 100 µM | NCI-H460 > 100 µM | EKVX > 100 µM

CC1(C)CC2C(C1=O)C1(C)CCCC2(C)C1=O (stereo not given)
inactive: SR > 100 µM | SK-MEL-28 > 100 µM | MDA-MB-231 > 100 µM | SK-MEL-2 > 100 µM | HOP-92 > 100 µM | NCI-H23 > 100 µM | T47D > 100 µM | PC-3 > 100 µM | HCC 2998 > 100 µM | SW-620 > 100 µM | TK-10 > 100 µM | HCT-116 > 100 µM | SK-OV-3 > 100 µM | UACC-62 > 100 µM | KM12 > 100 µM | HL-60 > 100 µM | NCI-H460 > 100 µM | EKVX > 100 µM

CN(Cc1c[n+]([O-])c2nc(N)nc(N)c2n1)c1ccc(C(=O)NC23CC4CC(CC(C4)C2)C3)cc1
inactive: SR 28.8 µM | SK-MEL-28 23.1 µM | MDA-MB-231 98.9 µM | SK-MEL-2 > 100 µM | NCI-H23 > 100 µM | T47D 75.2 µM | PC-3 89.7 µM | SW-620 > 100 µM | TK-10 > 100 µM | HCT-116 > 100 µM | SK-OV-3 > 100 µM | UACC-62 > 100 µM | RXF 393 31.2 µM | KM12 > 100 µM | HL-60 31 µM | NCI-H460 > 100 µM | EKVX > 100 µM

C[C@]1(O)CC(=O)c2c(c(-c3ccc4cc5c(c(O)c4c3O)C(=O)C[C@@](C)(O)C5)c3cccc(O)c3c2O)C1
inactive: SR 5.56 µM | SK-MEL-28 10.4 µM | MDA-MB-231 4.91 µM | SK-MEL-2 2.52 µM | HOP-92 2.58 µM | NCI-H23 3.69 µM | T47D 2.86 µM | PC-3 3.08 µM | HCC 2998 4.58 µM | SW-620 6 µM | TK-10 6.82 µM | HCT-116 3.48 µM | SK-OV-3 10.3 µM | UACC-62 5.64 µM | RXF 393 4.58 µM | KM12 3.31 µM | NCI-H460 3.24 µM | NCI-H522 4.88 µM | EKVX 11.2 µM

CC1(C)O[C@H](C(=O)O)[C@@H](C(=O)O)O1
inactive: SR > 100 µM | SK-MEL-28 > 100 µM | MDA-MB-231 > 100 µM | SK-MEL-2 > 100 µM | HOP-92 > 100 µM | T47D > 100 µM | PC-3 > 100 µM | HCC 2998 > 100 µM | SW-620 > 100 µM | TK-10 > 100 µM | HCT-116 > 100 µM | SK-OV-3 > 100 µM | UACC-62 > 100 µM | RXF 393 > 100 µM | KM12 > 100 µM | NCI-H460 > 100 µM | NCI-H522 > 100 µM | EKVX > 100 µM

[N-]=[N+]=Nc1c(Cl)c(Cl)nc2ccccc12
inactive: SR > 100 µM | SK-MEL-28 > 100 µM | MDA-MB-231 81.5 µM | SK-MEL-2 > 100 µM | HOP-92 35.3 µM | NCI-H23 75.5 µM | T47D 68.1 µM | PC-3 > 100 µM | HCC 2998 > 100 µM | SW-620 93.8 µM | TK-10 95.9 µM | HCT-116 > 100 µM | SK-OV-3 > 100 µM | UACC-62 > 100 µM | RXF 393 88.5 µM | KM12 > 100 µM | NCI-H460 > 100 µM | NCI-H522 71.3 µM | EKVX 92.7 µM

NCCCCCCn1c(-c2ccc(Br)cc2)cs/c1=N\c1ccccc1
inactive: SR 3.51 µM | SK-MEL-28 12.7 µM | MDA-MB-231 14.4 µM | SK-MEL-2 18.6 µM | HOP-92 12.7 µM | NCI-H23 14.7 µM | T47D 5.08 µM | PC-3 5.86 µM | HCC 2998 3.75 µM | SW-620 4.28 µM | TK-10 13.6 µM | HCT-116 4.09 µM | SK-OV-3 17.2 µM | UACC-62 17.4 µM | RXF 393 10.9 µM | KM12 5.74 µM | NCI-H460 13.1 µM | NCI-H522 10.5 µM | EKVX 13.8 µM

O=C(CSCC(=O)N/N=C\c1cccc(Br)c1)N/N=C\c1cccc(Br)c1
inactive: SR 27.2 µM | SK-MEL-28 18.8 µM | MDA-MB-231 12.7 µM | SK-MEL-2 22.9 µM | HOP-92 18.9 µM | NCI-H23 14.6 µM | T47D 18.1 µM | PC-3 14.5 µM | SW-620 27.8 µM | TK-10 11.6 µM | HCT-116 14.8 µM | SK-OV-3 20.1 µM | UACC-62 14.7 µM | RXF 393 20.3 µM | KM12 15 µM | HL-60 30.3 µM | NCI-H460 25.2 µM | NCI-H522 17 µM | EKVX 27.1 µM
